# Data from patent publication US12090163B2, “Pharmaceutical compositions” (CIPLA LIMITED, priority 2017, dated 2024).
# Structures can show the parent of a compound that is named as a salt.
# Experiments:
# HIV-1 isolate JV-1083 = assay: In vitro efficacy against HIV-1 in fresh PBMCs (reverse transcriptase activity in supernatant), isolate JV-1083; type: cell-based
# Procedure: Fresh human PBMCs, seronegative for HIV and HBV, were isolated from screened donors (Biological Specialty Corporation, Colmar, PA). Cells were pelleted/washed 2-3 times by low speed centrifugation and re-suspension in PBS to remove contaminating platelets. The Leukophoresed blood was then diluted 1:1 with Dulbecco's Phosphate Buffered Saline (DPBS) and layered over 15 mL of Ficoll (GE Healthcare #17-1440-02) in 50 mL centrifuge tube and then centrifuged for 30 minutes at 600×g. Banded PBMCs were gently aspirated from the resulting interface and subsequently washed 2× with PBS by low speed centrifugation. After the final wash, cells were enumerated by tryptan blue exclusion and re-suspended at 1×10^6 cells/mL in RPMI 1640 supplemented with 15% Fetal Bovine Serum (FBS), and 2 mM L-glutamine, 4 μg/mL Phytohemagglutinin (PHA, Sigma). The cells were allowed to incubate for 48-72 hours at 37° C. After incubation, PBMCs were centrifuged and re-suspended in RPMI 1640 with 15% FBS, 2 mM L-glutamine, 100 U/mL penicillin, 100 μg/mL streptomycin, and approximately 100-150 U/mL recombinant human IL-2 (R&D Systems, Inc). IL-2 was included in the culture medium to maintain the cell division initiated by the PHA mitogenic stimulation. PBMCs were maintained in this medium at a concentration of 1-2×10^6 cells/mL with biweekly medium changes until used in the assay protocol. Cells were kept in culture for a maximum of two weeks before being deemed too old for use in assays and discarded. MDMs were depleted from the culture as the result of adherence to the tissue culture flask. […] Pooling (mixing) of mononuclear cells from more than one donor was used to minimize the variability observed between individual donors, which results from quantitative and qualitative differences in HIV infection and overall response to the PHA and IL-2 of primary lymphocyte populations. […]
# HBV = assay: Primary anti-HBV assay, extracellular HBV DNA by real-time qPCR from HepG2 2.2.15 cells; type: cell-based, HBV wild-type strain ayw1
# Procedure: The primary anti-HBV assay was performed by using real-time qPCR (TaqMan) to measure extracellular HBV DNA copy number associated with virions released from HepG2 2.2.15 cells. The HepG2 2.2.15 cell line was a stable human hepatoblastoma cell line that contains two copies of the HBV wild-type strain ayw1 genome and constitutively produces high levels of HBV. Antiviral compounds blocking any […] step of viral replication such as transcription, translation, pregenome encapsidation, reverse transcription, particle assembly and release can be identified and characterized using this cell line. Briefly, HepG2 2.2.15 cells were plated in 96-well microtiter plates at 1.5×10^4 cells/well in Dulbecco's Modified Eagle's Medium supplemented with 2% FBS, 380 μg/mL G418, 2.0 mM L-Glutamine, 100 units/mL Penicillin, 100 μg/mL Streptomycin, and 0.1 mM non-essential amino acids. Only the interior wells were utilized to reduce “edge effects” observed during cell culture; the exterior wells were filled with complete medium to help minimize sample evaporation. After 16-24 hours the confluent monolayer of HepG2 2.2.15 cells was washed and the medium was replaced with complete medium containing various concentrations of a test compound in triplicate. Lamivudine (3TC) was used as the positive control, while media alone was added to cells as a negative control (virus control, VC). Three days later the culture medium was replaced with fresh medium containing the appropriately diluted test compounds. Six days following the initial administration of the test compound, the cell culture supernatant was collected, treated with pronase and then used in a real-time quantitative TaqMan qPCR assay. The PCR-amplified HBV DNA was detected in real-time by monitoring increases in fluorescent signal that result from the exonucleolytic degradation of a quenched fluorescent probe molecule that hybridizes to the amplified HBV DNA. […] Antiviral activity was calculated from the reduction in HBV DNA levels (EC50 values determined). […] The Selectivity Index was calculated as CC50/EC50.
smiles,measurement,setting,value
C[C@H](Cn1cnc2c(N)ncnc21)OCP(=O)(OCOC(=O)C(C)(C)C)Oc1ccccc1 (stereo partly drawn) [((((((R)-1-(6-amino-9H-purin-9-yl)propan-2-yl)oxy)methyl)(phenoxy)phosphoryl)oxy)methyl pivalate fumarate],Selectivity Index,"HIV-1 isolate JV-1083; HIV-1 isolate JV-1083, PBMCs",11241
same,EC50,"HIV-1 isolate JV-1083; Human immunodeficiency virus 1, PBMC, HIV-1 isolate JV-1083, PHA-stimulated fresh human PBMCs, six-seven days",2.46 nM
same,Conclusion: activity against HIV-1,"HIV-1 isolate JV-1083; against the two HIV-1 isolates (JV-1083, 89BZ_167) in PBMCs",potently active
same,Selectivity Index,"HBV; CC50/EC50, HepG2 2.2.15 cells",>1250
same,Conclusion: activity against HBV,HBV; HepG2 2.2.15 cells,potently active
same,EC50,"HBV; Hepatitis B virus, 144 h, reduction in extracellular HBV DNA, HepG2 2.2.15 cells, six days",80 nM
